Measurements: ChEMBL document CHEMBL3044921, “Synthesis, characterization, and SAR studies of new (1H-indol-3-yl)alkyl-3-(1H-indol-3-yl)propanamide derivatives as possible antimicrobial and antitubercular agents” (2013)
Converted amounts (≈) assume the structure as drawn.

test system: Mycobacterium tuberculosis; test: Antitubercular activity against multidrug-resistant Mycobacterium tuberculosis assessed as growth inhibition at 0.3125 to 5 ug/mL after 7 days by resazurin reduction test; assay type: functional; details: 168 h

**Q.** `Cn1cc(CCC(=O)NCc2c[nH]c3ccc(Cl)cc23)c2cc(Cl)ccc21` was tested. Which MIC did it give?
**A.** Its MIC is 6.25 µg/mL (≈ 15.6 µM).

**Q.** Which MIC does the source give for `Cn1cc(CCCNC(=O)CCc2cn(C)c3ccc(Cl)cc23)c2cc(Cl)ccc21` here?
**A.** The MIC was 25 µg/mL (≈ 56.5 µM).

**Q.** How did the MIC turn out when `Cc1[nH]c2ccc(OC(F)(F)F)cc2c1CCCNC(=O)CCc1c[nH]c2ccc(Cl)cc12` was run?
**A.** Its MIC is greater than 50 µg/mL.

**Q.** `Cc1c(CCCNC(=O)CCc2c[nH]c3ccc(Cl)cc23)c2cc(OC(F)(F)F)ccc2n1C` was tested. Which MIC did it give?
**A.** Its MIC is greater than 50 µg/mL.

**Q.** With `Cn1cc(CCC(=O)NCCCc2c[nH]c3ccc(OC(F)(F)F)cc23)c2cc(Cl)ccc21` as the molecule, how does the MIC read?
**A.** The MIC was 6.25 µg/mL (≈ 13.1 µM).

**Q.** For `Cc1c(CCCNC(=O)CCc2cn(C)c3ccc(Cl)cc23)c2cc(OC(F)(F)F)ccc2n1C`, which MIC is on record?
**A.** Its MIC is 1.25 µg/mL (≈ 2.47 µM).

**Q.** How did the MIC turn out when `Cn1cc(CCC(=O)NCCCc2c[nH]c3ccc(Cl)cc23)c2cc(Cl)ccc21` was run?
**A.** The MIC was 2.5 µg/mL (≈ 5.84 µM).

**Q.** Which MIC does the source give for `Cn1cc(CCCNC(=O)CCc2c[nH]c3ccc(Cl)cc23)c2cc(OC(F)(F)F)ccc21` here?
**A.** The MIC was 12.5 µg/mL (≈ 26.2 µM).

**Q.** `O=C(CCc1c[nH]c2ccc(Cl)cc12)NCc1c[nH]c2ccc(OC(F)(F)F)cc12` was tested. Which MIC did it give?
**A.** The MIC was greater than 50 µg/mL.

**Q.** How did the MIC turn out when `Cc1[nH]c2ccc(OC(F)(F)F)cc2c1CNC(=O)CCc1c[nH]c2ccc(Cl)cc12` was run?
**A.** Its MIC is 6.25 µg/mL (≈ 13.9 µM).

**Q.** Which MIC does the source give for `Cc1c(CNC(=O)CCc2c[nH]c3ccc(Cl)cc23)c2cc(OC(F)(F)F)ccc2n1C` here?
**A.** The MIC was greater than 50 µg/mL.

**Q.** Which MIC does the source give for `Cn1cc(CNC(=O)CCc2c[nH]c3ccc(Cl)cc23)c2cc(Cl)ccc21` here?
**A.** Its MIC is greater than 50 µg/mL.

**Q.** How did the MIC turn out when `Cn1cc(CCC(=O)NCc2c[nH]c3ccc(OC(F)(F)F)cc23)c2cc(Cl)ccc21` was run?
**A.** Its MIC is 6.25 µg/mL (≈ 13.9 µM).

**Q.** `Cc1c(CNC(=O)CCc2cn(C)c3ccc(Cl)cc23)c2cc(OC(F)(F)F)ccc2n1C` was tested. Which MIC did it give?
**A.** Its MIC is greater than 50 µg/mL.

**Q.** `Cn1cc(CCC(=O)NCc2cn(C)c3ccc(Cl)cc23)c2cc(Cl)ccc21` was tested. Which MIC did it give?
**A.** Its MIC is greater than 50 µg/mL.

**Q.** `O=C(CCc1c[nH]c2ccc(Cl)cc12)NCc1c[nH]c2ccc(Cl)cc12` was tested. Which MIC did it give?
**A.** Its MIC is 6.25 µg/mL (≈ 16.2 µM).

**Q.** How did the MIC turn out when `Cc1[nH]c2ccc(OC(F)(F)F)cc2c1CNC(=O)CCc1cn(C)c2ccc(Cl)cc12` was run?
**A.** Its MIC is greater than 50 µg/mL.

**Q.** Which MIC does the source give for `NNC(=O)c1ccncc1` [ISONIAZID] here?
**A.** Its MIC is 12.5 µg/mL (≈ 91.1 µM).

**Q.** `CO[C@H]1/C=C/O[C@@]2(C)Oc3c(C)c(O)c4c(O)c(c(/C=N/N5CCN(C)CC5)c(O)c4c3C2=O)NC(=O)/C(C)=C\C=C\[C@H](C)[C@H](O)[C@@H](C)[C@@H](O)[C@@H](C)[C@H](OC(C)=O)[C@@H]1C` [RIFAMPIN] was tested. Which MIC did it give?
**A.** The MIC was 25 µg/mL (≈ 30.4 µM).
